Reference: US12037322B2, “AHR agonists” (Eli Lilly and Company, priority 2021, dated 2024)

biological target: T1, hAHR (Homo sapiens, UniProt P35869); assay: hAHR nuclear translocation assay; assay type: cell-based; details: Jump-In T-REx HEK293 cells expressing AhR-EGFP; 45 min incubation; ratio of EGFP intensity in nuclear over cytosol; 20-point curve
T1 construct: expressed in transfected cells
T1 sequence (P35869 11-848): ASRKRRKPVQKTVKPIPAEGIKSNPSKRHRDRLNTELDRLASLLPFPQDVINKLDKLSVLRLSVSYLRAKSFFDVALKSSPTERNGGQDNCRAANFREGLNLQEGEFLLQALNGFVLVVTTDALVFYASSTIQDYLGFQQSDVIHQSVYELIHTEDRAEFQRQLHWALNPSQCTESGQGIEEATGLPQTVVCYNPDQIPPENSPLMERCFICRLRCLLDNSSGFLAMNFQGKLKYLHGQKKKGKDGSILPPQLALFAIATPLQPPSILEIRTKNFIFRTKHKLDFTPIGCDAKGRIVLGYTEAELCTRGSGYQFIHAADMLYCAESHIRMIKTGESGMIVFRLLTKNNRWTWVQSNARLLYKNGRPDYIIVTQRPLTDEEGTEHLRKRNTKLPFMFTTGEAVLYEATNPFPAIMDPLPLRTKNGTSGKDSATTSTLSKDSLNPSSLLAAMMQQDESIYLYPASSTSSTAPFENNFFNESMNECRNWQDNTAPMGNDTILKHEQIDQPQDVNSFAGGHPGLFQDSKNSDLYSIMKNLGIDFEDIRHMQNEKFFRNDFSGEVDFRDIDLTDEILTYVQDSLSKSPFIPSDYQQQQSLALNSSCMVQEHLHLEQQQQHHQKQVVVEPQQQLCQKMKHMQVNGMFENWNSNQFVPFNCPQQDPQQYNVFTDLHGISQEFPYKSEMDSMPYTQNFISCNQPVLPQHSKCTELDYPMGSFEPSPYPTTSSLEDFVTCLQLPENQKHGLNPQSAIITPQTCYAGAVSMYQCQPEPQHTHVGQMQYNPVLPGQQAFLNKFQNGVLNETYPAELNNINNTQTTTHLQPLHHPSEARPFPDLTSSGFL
Description: Stable cell lines were established using Jump-In™ T-REx™ HEK293 Retargeting Kit (Life Technologies). hAhR cDNA was cloned into the pJTI R4 CMV-TO EGFP vector. The EGFP was cloned to the C-terminal of AHR to form AhR-EGFP chimera. The pJTI R4 CMV-TO AhR-EGFP vector was transfected using FuGENE® HD into Jump-In™ T-REx™ HEK293 cells. Transfected cells were selected using 2.5 mg/ml G418 for 10 to 14 days, then expanded, harvested, and suspended in freeze media (FBS with 8% DMSO) at 2×10^7 cells/mL, and aliquots were stored in liquid nitrogen. One day before the assay date, cells were thawed and resuspended in DMEM with 5% FBS in the presence of 1 μg/mL Doxycycline and plated into ploy-L-Lysine coated […]-384 ULTRA Microplates (Perkin Elmer) at 12,000 to 15,000 cells per well and incubated at 37° C. and 5% CO2 overnight. On the assay date, compound was serially diluted (1:2) into 384-well nunc plates with DMSO using acoustic dispensing (ECHO). The dose response was a 20-point curve. Compound was resuspended in 40 μL of DMEM plus 0.1% BSA. The culture media was damped and 25 μL of DMEM plus 0.1% BSA was added, then 25 μL of compound in DMEM plus 0.1% BSA was added into cell plates. Cells were incubated with compounds at 37° C. and 5% CO2 for 45 min.
The final DMSO concentration was 0.2%. The media was damped after 45 minutes incubation. The cells were fixed with 40 μL of cold MeOH (−20° C.) for 20 min. The MeOH was damped and 50 μL of DPBS containing 1 μg/mL Hochst was added into the cell plates. The intensity of EGFP was quantitated by using OPERA PHENIX® or Operetta™ high content image system (Perkin Elmer) with 20× Water Objective and five field per well. The ratio of EGFP fluorescent intensity in nuclear over cytosol was analyzed using a 4-parameter nonlinear logistic equation to determine the potency of AhR agonists.

EC50 [nM]	SMILES
3.68	CC1CCc2c1c(O)c(C(=O)Nc1ccc(C(F)(F)F)nc1)c(=O)n2C (stereo not drawn) [Example 28, 4-Hydroxy-1,5-dimethyl-2-oxo-N-[6-(trifluoromethyl)-3-pyridyl]-6,7-dihydro-5H-cyclopenta[b]pyridine-3-carboxamide]
2.44	CCC1CCc2c1cc(C(=O)Nc1ncc(F)cn1)c(=O)n2C (single isomer, unassigned) [Example 114, 5-ethyl-N-(5-fluoropyrimidin-2-yl)-1-methyl-2-oxo-6,7-dihydro-5H-cyclopenta[b]pyridine-3-carboxamide]
9.41	Cn1c2c(c(O)c(C(=O)Nc3ccccn3)c1=O)CC(C)(C)C2 [Example 42, 4-Hydroxy-1,6,6-trimethyl-2-oxo-N-(2-pyridyl)-5,7-dihydrocyclopenta[b]pyridine-3-carboxamide]
8.67	CC1Cc2c(O)c(C(=O)Nc3ncccn3)c(=O)n(C)c2C1 (single isomer, unassigned) [Example 84, 4-Hydroxy-1,6-dimethyl-2-oxo-N-pyrimidin-2-yl-6,7-dihydro-5H-cyclopenta[b]pyridine-3-carboxamide]
2.27	Cn1c2c(c(O)c(C(=O)Nc3ccccc3)c1=O)CC(C)(C)CC2 [Example 110, 4-Hydroxy-1,6,6-trimethyl-2-oxo-N-phenyl-7,8-dihydro-5H-quinoline-3-carboxamide]
4.67	C[C@H]1CCc2c1cc(C(=O)Nc1ncc(F)cn1)c(=O)n2C [Example 13, (5S)-N-(5-Fluoropyrimidin-2-yl)-1,5-dimethyl-2-oxo-6,7-dihydro-5H-cyclopenta[b]pyridine-3-carboxamide]
16.9	CC1CCc2c1cc(C(=O)Nc1ncccc1F)c(=O)n2C (stereo not drawn) [Example 5, N-(3-Fluoro-2-pyridyl)-1,5-dimethyl-2-oxo-6,7-dihydro-5H-cyclopenta[b]pyridine-3-carboxamide]
1.06	CC1CCc2c1c(O)c(C(=O)Nc1ncc(Cl)cn1)c(=O)n2C (single isomer, unassigned) [Example 93, N-(5-Chloropyrimidin-2-yl)-4-hydroxy-1,5-dimethyl-2-oxo-6,7-dihydro-5H-cyclopenta[b]pyridine-3-carboxamide]
0.378	CC1CCc2c1c(O)c(C(=O)Nc1ccsn1)c(=O)n2C (single isomer, unassigned) [Example 39, 4-Hydroxy-N-isothiazol-3-yl-1,5-dimethyl-2-oxo-6,7-dihydro-5H-cyclopenta[b]pyridine-3-carboxamide]
2.55	CC1CCc2c1cc(C(=O)Nc1nccs1)c(=O)n2C (single isomer, unassigned) [Example 63, 1,5-Dimethyl-2-oxo-N-thiazol-2-yl-6,7-dihydro-5H-cyclopenta[b]pyridine-3-carboxamide]
42	CC1CCc2c1cc(C(=O)NC1CCCC1)c(=O)n2C (single isomer, unassigned) [Example 61, N-Cyclopentyl-1,5-dimethyl-2-oxo-6,7-dihydro-5H-cyclopenta[b]pyridine-3-carboxamide]
1.21	CC1CCc2c1c(O)c(C(=O)Nc1ncc(F)cn1)c(=O)n2C (single isomer, unassigned) [Example 95, N-(5-Fluoropyrimidin-2-yl)-4-hydroxy-1,5-dimethyl-2-oxo-6,7-dihydro-5H-cyclopenta[b]pyridine-3-carboxamide]
11.2	CC(C)C1CCc2c1cc(C(=O)Nc1ncc(F)cn1)c(=O)n2C (single isomer, unassigned) [Example 113, N-(5-fluoropyrimidin-2-yl)-5-isopropyl-1-methyl-2-oxo-6,7-dihydro-5H-cyclopenta[b]pyridine-3-carboxamide]
4.86	CC1CCc2c1c(O)c(C(=O)Nc1ncccc1F)c(=O)n2C (single isomer, unassigned) [Example 91, N-(3-Fluoro-2-pyridyl)-4-hydroxy-1,5-dimethyl-2-oxo-6,7-dihydro-5H-cyclopenta[b]pyridine-3-carboxamide]
0.342	CC1CCc2c1c(O)c(C(=O)Nc1ncc(C(F)(F)F)cn1)c(=O)n2C (single isomer, unassigned) [Example 98, 4-Hydroxy-1,5-dimethyl-2-oxo-N-[5-(trifluoromethyl)pyrimidin-2-yl]-6,7-dihydro-5H-cyclopenta[b]pyridine-3-carboxamide]
27.3	CC1Cc2c(O)c(C(=O)Nc3ccccn3)c(=O)n(C)c2C1 (single isomer, unassigned) [Example 87, 4-Hydroxy-1,6-dimethyl-2-oxo-N-(2-pyridyl)-6,7-dihydro-5H-cyclopenta[b]pyridine-3-carboxamide]
1.82	CC1CCc2c1cc(C(=O)Nc1ccc(C(F)(F)F)cn1)c(=O)n2C (stereo not drawn) [Example 4, 1,5-Dimethyl-2-oxo-N-[5-(trifluoromethyl)-2-pyridyl]-6,7-dihydro-5H-cyclopenta[b]pyridine-3-carboxamide]
4.35	Cn1c2c(cc(C(=O)Nc3ccccc3)c1=O)COC(C)(C)C2 [Example 51, 1,7,7-Trimethyl-2-oxo-N-phenyl-5,8-dihydropyrano[4,3-b]pyridine-3-carboxamide]
1.54	CC1CCc2c1cc(C(=O)Nc1ncc(C(F)(F)F)cn1)c(=O)n2C (single isomer, unassigned) [Example 64, 1,5-Dimethyl-2-oxo-N-[5-(trifluoromethyl)pyrimidin-2-yl]-6,7-dihydro-5H-cyclopenta[b]pyridine-3-carboxamide]
1.32	C[C@@H]1CCc2c1cc(C(=O)Nc1ccsn1)c(=O)n2C [Example 18, (5R)-N-Isothiazol-3-yl-1,5-dimethyl-2-oxo-6,7-dihydro-5H-cyclopenta[b]pyridine-3-carboxamide]
13.7	C[C@H]1CCc2c1cc(C(=O)Nc1nnc(C(F)(F)F)s1)c(=O)n2C [Example 10, (5S)-1,5-Dimethyl-2-oxo-N-[5-(trifluoromethyl)-1,3,4-thiadiazol-2-yl]-6,7-dihydro-5H-cyclopenta[b]pyridine-3-carboxamide]
0.5	C[C@H]1CCc2c1cc(C(=O)Nc1ccccc1)c(=O)n2C [Example 67, (5S)-1,5-Dimethyl-2-oxo-N-phenyl-6,7-dihydro-5H-cyclopenta[b]pyridine-3-carboxamide]
6.4	CC1CCc2cc(C(=O)Nc3ccccc3)c(=O)n(C)c21 (stereo not drawn) [Example 52, 1,7-Dimethyl-2-oxo-N-phenyl-6,7-dihydro-5H-cyclopenta[b]pyridine-3-carboxamide]
2.23	CC1CCc2c1c(O)c(C(=O)Nc1ncccc1F)c(=O)n2C (stereo not drawn) [Example 29, N-(3-Fluoro-2-pyridyl)-4-hydroxy-1,5-dimethyl-2-oxo-6,7-dihydro-5H-cyclopenta[b]pyridine-3-carboxamide]
4.72	C[C@H]1CCc2c1cc(C(=O)Nc1cnsc1)c(=O)n2C [Example 21, (5S)-N-Isothiazol-4-yl-1,5-dimethyl-2-oxo-6,7-dihydro-5H-cyclopenta[b]pyridine-3-carboxamide]
7.79	C[C@@H]1CCc2c1c(O)c(C(=O)Nc1ncccn1)c(=O)n2C (single isomer, unassigned) [Example 86, 4-Hydroxy-1,5-dimethyl-2-oxo-N-pyrimidin-2-yl-6,7-dihydro-5H-cyclopenta[b]pyridine-3-carboxamide]
8.27	Cc1nc2ccc(NC(=O)c3cc4c(n(C)c3=O)CCC(C)(C)C4)cc2o1 [Example 50, 1,6,6-Trimethyl-N-(2-methyl-1,3-benzoxazol-6-yl)-2-oxo-7,8-dihydro-5H-quinoline-3-carboxamide]
